Source: patent US8716250B2, “Diazoxide for the treatment of Friedreich's ataxia” (Universita' Degli Studi di Bari, priority 2008, dated 2014)
Entries after “also recorded” stand apart in the source; their conditions may differ.

Assays:
frataxin [1] = assay: Western blot analysis of frataxin in cells of FRDA patients; format: cell-based, human; conditions: FRDA patient cells, 24 hours after the initial treatment
Description: The cells treated as described in example 1 are lysed with a lysis buffer (0.15 M NaCl, 5 mM EDTA, pH 8, 1% Triton X100, 10 mM Tris-Cl, pH 7.4) and transferred to microcentrifuge tubes. A quantity of approximately 50 μg of cell suspension is separated by electrophoresis in the presence of SDS (sodium dodecyl sulphate) at 17% (denaturing conditions). The resulting product is transferred onto nitrocellulose membranes. Identification of the presence of the target protein, i.e. the frataxin, is performed with a rabbit polyclonal primary antibody directed against said protein (Santa Cruz Biotechnology), and a goat-anti rabbit HRP secondary antibody (Pierce). The reaction was identified with enzymatic method by means of ECL plus system (Amersham). […] It can be seen that the cells of the patients treated according to the invention present an evident band as expression of the quantity of frataxin present with respect to the non-treated control.

frataxin [2] = assay: Quantitative real-time RT-PCR of frataxin expression in immortalized lymphoblastoid cell lines of FRDA patients; format: cell-based, human; conditions: FRDA patient lymphoblastoid cells, 24 hours
Description: Extraction of the RNA from the cells is performed according to the indications contained in the QIAconnect Gene Expression (Qiagen) kit. Particularly the samples are lysed and homogenated. Ethanol is then added to the treated samples to provide ideal conditions for the bond with the silica-gel RNase membrane. In this way the RNA binds and the contaminants are washed; the pure RNA is concentrated and eluted. The concentration of the extracted RNA is determined by UV spectrophotometric method under suitable reading conditions. The reverse transcription reaction is performed with the GeneAmp RNA PCR core (Applied Biosystems) kit according to the indications provided by the manufacturer. Quantification of the reverse-transcribed product is performed using fluorescent probes capable of hybridizing and specifically pairing DNA regions of interest. The probes used according to the invention are Probe Hs 00175940_m1 and Probe Hs 99999903 ml (Applied Biosystems). Particularly the probe defined Hs 00175940_m1 represents the specific probe able to recognise and hybridize the human frataxin gene, while the probe Hs 99999903 ml recognises the human actin and is useful for normalising the mRNA values of the target. The analyzing step of the results is performed by substituting the mathematical formula 2^−ΔΔCt with the difference between the target threshold cycle in the samples treated and not treated (control) with diazoxide, normalised with the threshold cycle value of the reference gene (actin), in the case in question ΔCt=Ct Hs00175940—m1−Ct Hs99999903—m1. ΔΔCt=ΔCt(treated sample)−ΔCt(control sample) The result of the calculation 2^−ΔΔCt represents the relative quantification value. Said value permits determination of the quantity of frataxin (which represents the target) in the sample treated with diazoxide with respect to the quantity of frataxin in the sample not treated with diazoxide (which represents the control) normalised for the quantity of actin (which represents the reference or internal standard) in the same sample. The expression level and therefore the quantity of frataxin of cells deriving from immortalized lymphoblastoid cell lines of FRDA patients treated as described in examples 2 and 3 was compared 24 hours after the treatment. […] In particular, the broken vertical line represents the threshold value above which the increase in frataxin expression can be seen. The experiment was conducted testing the cells with concentrations of diazoxide varying from 25 nM to 100 μM in combination with fixed concentrations of glucose 20 mM. The expression and therefore the quantity of frataxin in cells deriving from immortalized lymphoblastoid cell lines of FRDA patients was compared.

frataxin [3] = assay: Western blot analysis of frataxin in HEK 293 cells; format: cell-based, human; conditions: for frataxin expression, western blot: 4 or 5 days after the initial treatment
Description: The human cell line HEK 293 (Human Embryonic Kidney) grown in Dulbecco's modified Eagle's medium (DMEM, Sigma) with the addition of 10% foetal bovine serum (FBS) (v/v), glutamine 2 mM, penicillin 100 unit/ml and streptomycin 100 μg/ml is kept in an incubator at a temperature of 37° C. and 5% CO2. Preferably the HEK 293 cells, cultured on 60 mm plates at a concentration of 0.5×10^6, after at least 14 hours of growth have a 70-80% confluence. […] The cells treated as described in example 1 are lysed with a lysis buffer (0.15 M NaCl, 5 mM EDTA, pH 8, 1% Triton X100, 10 mM Tris-Cl, pH 7.4) and transferred to microcentrifuge tubes. A quantity of approximately 50 μg of cell suspension is separated by electrophoresis in the presence of SDS (sodium dodecyl sulphate) at 17% (denaturing conditions). The resulting product is transferred onto nitrocellulose membranes. Identification of the presence of the target protein, i.e. the frataxin, is performed with a rabbit polyclonal primary antibody directed against said protein (Santa Cruz Biotechnology), and a goat-anti rabbit HRP secondary antibody (Pierce). The reaction was identified with enzymatic method by means of ECL plus system (Amersham).

frataxin [4] = assay: Quantitative real-time RT-PCR of frataxin expression in HEK 293 cells; format: cell-based, human
Description: The human cell line HEK 293 (Human Embryonic Kidney) grown in Dulbecco's modified Eagle's medium (DMEM, Sigma) with the addition of 10% foetal bovine serum (FBS) (v/v), glutamine 2 mM, penicillin 100 unit/ml and streptomycin 100 μg/ml is kept in an incubator at a temperature of 37° C. and 5% CO2. Preferably the HEK 293 cells, cultured on 60 mm plates at a concentration of 0.5×10^6, after at least 14 hours of growth have a 70-80% confluence. […] Extraction of the RNA from the cells is performed according to the indications contained in the QIAconnect Gene Expression (Qiagen) kit. Particularly the samples are lysed and homogenated. Ethanol is then added to the treated samples to provide ideal conditions for the bond with the silica-gel RNase membrane. In this way the RNA binds and the contaminants are washed; the pure RNA is concentrated and eluted. The concentration of the extracted RNA is determined by UV spectrophotometric method under suitable reading conditions. The reverse transcription reaction is performed with the GeneAmp RNA PCR core (Applied Biosystems) kit according to the indications provided by the manufacturer. Quantification of the reverse-transcribed product is performed using fluorescent probes capable of hybridizing and specifically pairing DNA regions of interest. The probes used according to the invention are Probe Hs 00175940_m1 and Probe Hs 99999903 ml (Applied Biosystems). Particularly the probe defined Hs 00175940_m1 represents the specific probe able to recognise and hybridize the human frataxin gene, while the probe Hs 99999903 ml recognises the human actin and is useful for normalising the mRNA values of the target. The analyzing step of the results is performed by substituting the mathematical formula 2^−ΔΔCt with the difference between the target threshold cycle in the samples treated and not treated (control) with diazoxide, normalised with the threshold cycle value of the reference gene (actin), in the case in question ΔCt=Ct Hs00175940—m1−Ct Hs99999903—m1. ΔΔCt=ΔCt(treated sample)−ΔCt(control sample) The result of the calculation 2^−ΔΔCt represents the relative quantification value. Said value permits determination of the quantity of frataxin (which represents the target) in the sample treated with diazoxide with respect to the quantity of frataxin in the sample not treated with diazoxide (which represents the control) normalised for the quantity of actin (which represents the reference or internal standard) in the same sample. For example a value of 1 is attributed to the control samples, i.e. HEK 293 cells not treated with diazoxide chosen as references.

[5] = children treated with ibedenone; cited from earlier work
[6] = diazoxide in combination with glucose
[7] = diazoxide in combination with leucine

SMILES: CC1=NS(=O)(=O)c2cc(Cl)ccc2N1 [diazoxide, 7-chloro-3-methyl-4H-1,2,4 benzothiadiazine 1,1-dioxide]
- frataxin expression, western blot, with respect to the non-treated control (frataxin [1]; [6]): maintain the increase in expression
- frataxin expression, western blot, with respect to the non-treated control (frataxin [1]; [7]): maintain the increase in expression
- frataxin expression levels, deviation from the threshold line (frataxin [2]; diazoxide 100 μM combined with glucose 20 mM): significant deviation from the threshold line
- effect on frataxin expression of the combination (frataxin [2]; [6]): synergic effect
- effect on frataxin expression of the combination (frataxin [2]; [7]): synergic effect
- frataxin expression levels, deviation from the threshold line (frataxin [2]; some particular concentrations of diazoxide (25 nM to 100 μM tested) with glucose 20 mM): minimum deviation from the threshold line
- frataxin quantity (band intensity) versus control cells (frataxin [3]; HEK 293, cells treated as in example 1 (diazoxide 100 μM with glucose 20 mM, 24 hours)): greater than that of the control cells
- frataxin expression, western blot (frataxin [3]; [6]): maintain the increase in expression
- frataxin expression, western blot (frataxin [3]; [7]): maintain the increase in expression
- frataxin expression levels, deviation from the threshold line (frataxin [4]; HEK 293, diazoxide 100 μM combined with leucine 10 mM, 24 hours): significant deviation from the threshold line
- increase in the quantity of frataxin with respect to the non-treated control over time (frataxin [4]; HEK 293, diazoxide 100 μM together with glucose 20 mM, 48 and 72 hours after the treatment): remains constant
- quantity of frataxin / frataxin expression with respect to the non-treated control (frataxin [4]; HEK 293, diazoxide 100 μM with glucose 20 mM, 24 hours): increased quantity of frataxin; also recorded: significant deviation from the threshold line
- frataxin expression levels, deviation from the threshold line (frataxin [4]; HEK 293, diazoxide only (25 nM or 100 μM without glucose), 24 hours): minimum deviation from the threshold line

SMILES: CC(C)C[C@H](N)C(=O)O [leucine]
- frataxin expression levels, deviation with respect to the non-treated control (frataxin [4]; HEK 293, leucine only 10 mM, 24 hours): minimum deviation with respect to the non-treated control

SMILES: COC1=C(OC)C(=O)C(CCCCCCCCCCO)=C(C)C1=O [ibedenone]
- benefits at neurological level [5]: practically nil
- children treated presenting an improvement in some of the symptoms [5]: 85%
